The target of experiment [1] is T1, IκBα ubiquitinating enzyme (SCF complex: ROC1, Cullin1, Skp1, His-TrCP1; with E1, UbcH5b) (Homo sapiens, UniProt P62877+P63208+Q13616+Q9Y297).
T1 construct: His (polyhistidine); made in house; host or cells: insect cells (baculovirus) for the SCF complex and His-E1; E. coli for His-UBCH5b
Kind of experiment: Measurement of ubiquitinating enzyme activity (IκBα ubiquitination, time-resolved fluorescence with Eu(K)-labeled ubiquitin and XL665-labeled anti-GST antibody). Type of experiment: biochemical. Summed up:
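Human SCF complex with E1 and UbcH5b ubiquitinated GST-IκBα pre-phosphorylated by IKKβ (2 mM ATP, pH 7.4, 1 h, RT), with Eu(K)-ubiquitin, 30 min RT. Stopped with EDTA, XL665 anti-GST added for 2 h; 665/620 nm TR-FRET ratio. % inhibition versus no-compound control and no-SCF blank gave IC50.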

Experiment [2] concerns ICAM-1 expression in HT-29 cells. Kind of experiment: Measurement of ICAM-1 expressing activity (TNFα-induced ICAM-1 expression, cell ELISA). Type of experiment: cell-based. The conditions noted are these: Homo sapiens, Table 6, cell activity inhibition test by method (3), read-out: EVALUATION (IC50 class, inhibition of cell activity). Summed up:
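HT-29 cells pretreated with compound (0.5% DMSO final) for 30 min at 37°C, then stimulated with 30 ng/mL human TNFα for 4 h. Surface ICAM-1 measured by cell ELISA on methanol-fixed cells: anti-ICAM-1 plus POD secondary, TMBZ substrate, absorbance at 450 nm.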

Setting [3] is: enzyme activity inhibition test, method (1), Table 5, read-out: EVALUATION

Like-named read-outs stand apart in the source and are kept apart here.

T1 sequence (Q9Y297 whole entry): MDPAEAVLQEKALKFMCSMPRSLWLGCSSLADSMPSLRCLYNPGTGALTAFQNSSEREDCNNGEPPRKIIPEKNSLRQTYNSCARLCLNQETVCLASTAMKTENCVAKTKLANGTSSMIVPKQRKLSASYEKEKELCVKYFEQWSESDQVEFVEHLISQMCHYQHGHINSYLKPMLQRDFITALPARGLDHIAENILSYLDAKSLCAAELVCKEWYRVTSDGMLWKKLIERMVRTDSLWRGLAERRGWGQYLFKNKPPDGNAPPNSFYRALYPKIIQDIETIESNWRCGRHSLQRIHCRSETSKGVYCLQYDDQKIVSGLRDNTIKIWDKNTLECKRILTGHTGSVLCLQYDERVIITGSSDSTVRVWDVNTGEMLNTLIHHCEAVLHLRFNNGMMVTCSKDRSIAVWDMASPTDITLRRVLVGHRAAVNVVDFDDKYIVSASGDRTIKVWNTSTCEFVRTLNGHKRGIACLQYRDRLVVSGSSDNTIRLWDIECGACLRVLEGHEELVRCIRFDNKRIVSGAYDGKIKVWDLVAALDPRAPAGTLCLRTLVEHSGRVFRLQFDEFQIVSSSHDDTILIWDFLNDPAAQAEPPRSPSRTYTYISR
T1 sequence (Q13616 whole entry): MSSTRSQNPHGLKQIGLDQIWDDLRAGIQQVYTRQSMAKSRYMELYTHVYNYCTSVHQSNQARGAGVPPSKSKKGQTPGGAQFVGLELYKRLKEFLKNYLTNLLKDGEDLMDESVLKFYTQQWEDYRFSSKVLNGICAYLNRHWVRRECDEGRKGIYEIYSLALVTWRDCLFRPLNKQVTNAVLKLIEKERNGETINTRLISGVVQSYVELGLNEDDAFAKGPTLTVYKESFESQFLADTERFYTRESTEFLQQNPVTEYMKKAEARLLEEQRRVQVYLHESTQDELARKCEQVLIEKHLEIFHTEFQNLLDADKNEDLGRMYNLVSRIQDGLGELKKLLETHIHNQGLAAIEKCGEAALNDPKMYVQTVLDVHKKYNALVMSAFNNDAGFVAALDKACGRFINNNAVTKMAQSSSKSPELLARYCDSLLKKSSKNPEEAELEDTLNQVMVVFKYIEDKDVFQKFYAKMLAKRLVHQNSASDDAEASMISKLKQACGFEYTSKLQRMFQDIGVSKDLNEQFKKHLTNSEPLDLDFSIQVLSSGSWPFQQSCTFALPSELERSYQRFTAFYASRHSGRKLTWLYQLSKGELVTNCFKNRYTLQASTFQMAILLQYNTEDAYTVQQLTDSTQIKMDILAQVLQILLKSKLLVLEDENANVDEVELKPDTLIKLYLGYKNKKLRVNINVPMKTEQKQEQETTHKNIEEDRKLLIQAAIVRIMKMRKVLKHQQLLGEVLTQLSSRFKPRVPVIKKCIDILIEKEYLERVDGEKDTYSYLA
T1 sequence (P63208 whole entry): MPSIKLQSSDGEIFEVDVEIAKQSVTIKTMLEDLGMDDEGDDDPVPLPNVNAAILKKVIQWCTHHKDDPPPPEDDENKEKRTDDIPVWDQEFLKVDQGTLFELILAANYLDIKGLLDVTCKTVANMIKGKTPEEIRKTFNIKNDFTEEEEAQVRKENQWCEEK
T1 sequence (P62877 whole entry): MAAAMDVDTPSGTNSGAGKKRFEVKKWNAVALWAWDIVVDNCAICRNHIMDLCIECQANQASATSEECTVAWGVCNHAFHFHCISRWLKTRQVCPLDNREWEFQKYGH

With `CCCCC1=NN(c2cccc(C(=O)O)c2)C(=O)/C1=C\c1ccc(N2CCCC2)cc1` [Compound 479], the IC50 in experiment [1] (setting [3]) and in experiment [2] was 10 to 20 µM throughout.
On to `CC1=NN(c2cccc(C(=O)N3CCCC(C(=O)O)C3)c2)C(=O)/C1=C\c1ccc2[nH]ccc2c1` (centres unmarked) [Compound 376], for which the IC50 in experiment [1] (setting [3]) is less than 10 µM; in experiment [2], less than 40 µM.
The matching figures for `COc1cc(/C=C2\C(=O)N(c3ccc(C(=O)O)cc3)N=C2C)ccc1OCc1c(C)noc1C` [Compound 391]: less than 10 µM and 10 to 20 µM.
The matching figures for `COc1cc(/C=C2\C(=O)N(c3ccc(C(=O)O)cc3)N=C2c2ccoc2)ccc1O` [Compound 244]: less than 10 µM and 10 to 20 µM.
In the same order, the values of `COc1cc(/C=C2\C(=O)N(c3ccc(S(N)(=O)=O)cc3)N=C2C)ccc1OS(=O)(=O)c1ccc(C)cc1` [Compound 202] are 10 to 20 µM and less than 40 µM.
`COCC1=NN(c2ccc(C(=O)O)cc2)C(=O)/C1=C\c1ccc2ccccc2c1` [Compound 233]: the IC50 in experiment [1] (setting [3]) and in experiment [2] was less than 10 µM in each case.
`CC1=NN(c2ccc(C(=O)O)cc2)C(=O)/C1=C\c1ccc2c(ccn2Cc2cc(C)on2)c1` [Compound 496]: the values for the IC50 in experiment [1] (setting [3]) and in experiment [2] were less than 10 µM and less than 40 µM, respectively.
Consider `O=C(O)c1ccc(N2N=C(c3ccoc3)/C(=C/c3ccc(-c4cnn(Cc5ccccc5)c4)o3)C2=O)cc1` [Compound 492], for which the results for the IC50 in experiment [1] (setting [3]) and in experiment [2] were less than 10 µM and 10 to 20 µM, respectively.
The matching figures for `CC1=NN(c2cccc(C(=O)O)c2)C(=O)/C1=C\c1ccc2c(ccn2C(=O)C2CC2)c1` [Compound 530]: less than 10 µM and less than 40 µM.
The matching figures for `O=C1/C(=C\c2ccc3ccccc3c2)C(c2ccoc2)=NN1c1ccccc1` [Compound 12]: less than 10 µM and less than 40 µM.
Turning to `COc1cc(/C=C2\C(=O)N(c3ccccn3)N=C2C)ccc1O` [Compound 129], the IC50 in experiment [1] (setting [3]) was less than 40 µM; in experiment [2], less than 10 µM.
The matching figures for `CCCCC1=NN(c2ccc(C(=O)O)cc2)C(=O)/C1=C\c1ccc2[nH]ccc2c1` [Compound 474]: less than 10 µM and less than 40 µM.
Regarding `COC(=O)N1CCN(c2ccc(C=C3C(=O)N(c4ccc(C(=O)O)cc4)N=C3c3ccoc3)cc2)CC1` [Compound 245], the values for the IC50 in experiment [1] and in experiment [2] were less than 10 µM and 10 to 20 µM, respectively.
As to `COc1cc(/C=C2\C(=O)N(c3ccccc3)N=C2c2ccoc2)ccc1OCc1ccccc1` [Compound 94], the IC50 was less than 10 µM in experiment [1] (setting [3]) and less than 40 µM in experiment [2].
In the same order, the values of `O=C(O)c1ccc(N2N=C(c3ccncc3)/C(=C/c3ccc(N4CCCC4)cc3)C2=O)cc1` [Compound 287] are less than 10 µM and 10 to 20 µM.
For the compound `CC1=NN(c2ccc(C(=O)O)cc2)C(=O)/C1=C\c1ccc(OCC(N)=O)cc1` [Compound 536], the figures for the IC50 in experiment [1] (setting [3]) and in experiment [2] were less than 10 µM and 10 to 20 µM, respectively.
In the same order, the values of `CC1=NN(c2cccc(C(=O)O)c2)C(=O)/C1=C\c1ccc2c(ccn2C(=O)c2cccn2C)c1` [Compound 532] are less than 10 µM and less than 40 µM.
Consider `COC(=O)N1CCN(c2ccc(C=C3C(=O)N(c4ccccc4)N=C3Cc3ccccc3)cc2)CC1` [Compound 25], for which the IC50 is 10 to 20 µM in experiment [1] and less than 40 µM in experiment [2].
As for `COCC1=NN(c2ccccc2)C(=O)/C1=C\c1ccc(-c2ccccc2F)o1` [Compound 6], the IC50 was 10 to 20 µM in experiment [1] (setting [3]) and less than 40 µM in experiment [2].
In the same order, the values of `COCCC1=NN(c2cccc(C(=O)O)c2)C(=O)/C1=C\c1ccc(-c2cnn(C)c2)o1` [Compound 505] are 10 to 20 µM and less than 40 µM.
For the compound `COc1cc(/C=C2\C(=O)N(c3ccc(C(=O)O)cc3)N=C2C2CC2)ccc1O` [Compound 312], the IC50 in experiment [1] (setting [3]) was less than 10 µM; in experiment [2], less than 40 µM.
For `O=C(O)c1ccc(N2N=C(C3CC3)/C(=C/c3ccc(CO)o3)C2=O)cc1` [Compound 316], the IC50 in experiment [1] (setting [3]) and in experiment [2] was less than 10 µM each time.
`CC1=NN(c2ccc(C(=O)O)cc2)C(=O)/C1=C\c1ccc(-n2cccn2)cc1` [Compound 261]: the values for the IC50 in experiment [1] (setting [3]) and in experiment [2] were less than 10 µM and 10 to 20 µM, respectively.
On to `CCCNC(=O)COc1ccc(C=C2C(=O)N(c3ccc(S(N)(=O)=O)cc3)N=C2C)cc1` [Compound 211], for which the figures for the IC50 in experiment [1] and in experiment [2] were 10 to 20 µM and less than 40 µM, respectively.
In the same order, the values of `COC(=O)N1CCN(c2ccc(C=C3C(=O)N(c4ccccc4)N=C3C3CC3)cc2)CC1` [Compound 73] are 10 to 20 µM and less than 40 µM.
For `CC(=O)N1CCN(c2ccc(/C=C3\C(=O)N(c4cccc(C(=O)O)c4)N=C3C)cc2)CC1` [Compound 442], the IC50 is less than 10 µM in experiment [1] (setting [3]) and less than 40 µM in experiment [2].
The matching figures for `O=C1/C(=C\c2ccc(CO)o2)C(c2ccoc2)=NN1c1ccccc1` [Compound 16]: less than 10 µM and 10 to 20 µM.
In the same order, the values of `CC1=NN(c2ccc(S(N)(=O)=O)cc2)C(=O)/C1=C\c1ccc(OCC(=O)O)cc1` [Compound 214] are 10 to 20 µM and less than 40 µM.
`CC1=NN(c2ccc(S(N)(=O)=O)cc2)C(=O)/C1=C\c1ccc(NC(=O)/C=C/c2ccccc2)cc1` [Compound 230]: the IC50 was less than 10 µM in experiment [1] (setting [3]) and less than 40 µM in experiment [2].
The matching figures for `O=C(O)c1ccc(N2N=C(Cc3ccccc3)/C(=C/c3ccc(CO)o3)C2=O)cc1` [Compound 268]: 10 to 20 µM and less than 40 µM.
`COCC1=NN(c2ccc(C(=O)O)cc2)C(=O)/C1=C\c1ccc(-n2cncn2)cc1` [Compound 243]: the IC50 in experiment [1] (setting [3]) and in experiment [2] was less than 10 µM throughout.
`COc1cc(/C=C2\C(=O)N(c3ccc(C(=O)O)cc3)N=C2Cc2ccccc2)ccc1OCc1ccccc1` [Compound 265]: the IC50 in experiment [1] (setting [3]) and in experiment [2] was 10 to 20 µM throughout.
Take `CC1=NN(c2ccc(C(=O)O)cc2)C(=O)C1=Cc1ccc(OCC(=O)N(C)C)cc1` [Compound 535]: the IC50 in experiment [1] and in experiment [2] was 10 to 20 µM in each case.
For `CC1=NN(c2ccc(S(N)(=O)=O)cc2)C(=O)/C1=C\c1ccc(F)cc1` [Compound 118], the IC50 in experiment [1] (setting [3]) and in experiment [2] was 10 to 20 µM in each case.
In the case of `CC1=NN(c2ccc(C(=O)O)cc2)C(=O)/C1=C\c1ccc2occc2c1` [Compound 370], the IC50 in experiment [1] (setting [3]) was less than 10 µM; in experiment [2] it was 10 to 20 µM.
As for `COc1ccc(C(=O)Nc2ccc(C=C3C(=O)N(c4ccc(S(N)(=O)=O)cc4)N=C3C)cc2)cc1` [Compound 229], the IC50 in experiment [1] is less than 10 µM; in experiment [2] it was 10 to 20 µM.
In the same order, the values of `COC(=O)N1CCN(c2ccc(C=C3C(=O)N(c4ccccc4)N=C3c3ccc(OC)c(OC)c3)cc2)CC1` [Compound 33] are 10 to 20 µM and less than 40 µM.
In the case of `CC1=NN(c2ccc(S(N)(=O)=O)cc2)C(=O)/C1=C\c1ccccc1OS(=O)(=O)c1ccc(C)cc1` [Compound 220], the IC50 was 10 to 20 µM in experiment [1] (setting [3]) and less than 10 µM in experiment [2].
As to `O=C(O)c1ccc(N2N=C(c3ccoc3)/C(=C/c3nccs3)C2=O)cc1` [Compound 249], the IC50 in experiment [1] (setting [3]) is 10 to 20 µM; in experiment [2], less than 40 µM.
The matching figures for `COc1cc(/C=C2\C(=O)N(Cc3cccc(O)c3)N=C2C)ccc1O` [Compound 128]: 10 to 20 µM and less than 10 µM.

Source of the values: EP1900728A1 (Genecare Research Institute Co., Ltd, priority 2005, dated 2006).
